In article PMC12311387, “Proactive Therapeutic Drug MONiToring to Guide Suppressive Antibiotic Therapy with DALBAvaNcin ( > 12 weeks) in Osteoarticular Infections (MONTALBANO)” (Journal of Bone and Joint Infection, 2025):

What was measured:
[1] = Therapeutic drug monitoring of plasma dalbavancin Cmin (LC-MS/MS) from the fourth dose onward; assay type: in vivo, human
Method: Included patients received the first three dalbavancin doses on day 1 (T0), day 8 (T1), and day 43 (T2) (Senneville et al., 2023). Subsequent injection timings were personalized and determined using dalbavancin Cmin measured immediately before the dalbavancin administration and maximum plasma concentrations ( Cmax ) measured 30 min after the end of the injection (Fig. 1). Starting from the third dose, Cmin and Cmax values were used in log-linear regression models by plotting logarithmic dalbavancin concentrations with time (Microsoft Excel Software, Microsoft Company, USA) (Cattaneo et al., 2023) to plan the subsequent administration aiming to maintain Cmin levels at ≥8 mg L^−1, as recommended in the recent literature (Cojutti et al., 2021).
Plasma dalbavancin blood samples were assessed using ethylene–diamine–tetraacetic acid (EDTA)-containing Vacutainers®. All samples were centrifuged at 3000 × g and plasma was separated and stored at -20 °C. Dalbavancin quantification was performed through a validated liquid chromatography tandem mass spectrometry method developed and validated according to the EMA guidelines. The analytical process consisted of a fast protein precipitation protocol of 50 µ L of plasma with 400 µ L of precipitation solution (methanol / acetonitrile, 3 / 1), centrifugation at 10 000 × g , 1 : 3 dilutions with water, and analysis. Chromatographic separation was achieved using a gradient (acetonitrile and water with formic acid 0.1 %) on a reversed-phase analytical column (Acquity UPLC BEH C18 1.70 µ m 2.1 × 50 mm; Waters, Milan, Italy). For quantification, analysis was performed in ESI-positive mode by monitoring the transition m/z = 909.45 > 340.2 for dalbavancin. The method was linear from 1 to 500 mg L^−1, with intraday and interday assay imprecision and inaccuracy consistently < 10 % during each analytical run.
The primary outcome was to evaluate the pharmacological efficacy of our proactive TDM-based administration method in maintaining the dalbavancin Cmin level at ≥8 mg L^−1 or ≥4 mg L^−1 taken from the fourth dose onward.
Pharmacological efficacy was defined as the number of instances where Cmin≥8 mg L^−1(or ≥4 mg L^−1) was achieved from the fourth dose onward. […] A tolerance window of up to ±4 d from the calculated injection date was allowed to adapt the model to real-life conditions and improve adherence to the treatment regimen.

[2] = 12 PJI patients, 1500 mg day 1, 8, 14 then 1000 mg biweekly from day 28; all Cmin values well above target; ref Söderquist et al., 2024; cited from earlier work
Method: Currently, there is considerable heterogeneity in the use of SAT with dalbavancin for OAIs in both the initial and the maintenance doses. For the latter, some proposed regimens range from 500 mg weekly to 500 mg biweekly to 1000 mg biweekly (Martín et al., 2019; Morata et al., 2019; Wunsch et al., 2019). However, none of these studies employed TDM to assess the pharmacological efficacy of such regimens. Söderquist et al. (2024) recently shared their experience with 12 patients treated with long-term ( >12 weeks) dalbavancin for PJI, according to the Swedish national guidelines and introducing ...

[3] = test system: osteoarticular infections (OAIs); assay: Clinical effectiveness from chart review in patients with osteoarticular infections; assay type: in vivo, human
Method: We established effectiveness with an assessment of clinical and microbiological outcomes from chart review detected up to 31 October 2024. If the patient was still on dalbavancin treatment, the clinical outcome was assessed as “ongoing treatment”. Otherwise, the assessment could result in the following: (i) completed therapy with clinical success (absence of failure or relapse at the follow-up); (ii) failure (clinical or microbiological failure with uncontrolled infection during dalbavancin treatment; need for medical interventions for the treated episode in addition to the initial program); (iii) relapse (exacerbation of the clinical condition within 6 months after the end of treatment); (iv) discontinuation of therapy due to AEs; (v) discontinuation of therapy due to new hospitalization for other clinical events; (vi) missing data (insufficient details to assess the outcome; lost at follow-up); (vii) death for infection-related conditions; or (viii) death for non-infection-related conditions.

[4] = Safety: monitoring of adverse events, renal toxicity and platelet count; assay type: in vivo, human; details: patients n=33, treatment >12 weeks
Method: Safety was assessed by monitoring AEs. We defined renal toxicity as a reduction in the estimated glomerular filtration rate (eGFR) to less than 30 mL min^−1/1.73 m^2, accompanied by a decrease of at least 20 % from baseline. A significant reduction in platelet count was considered when the count fell below 100 000 per mm^−3 with a decrease of at least 25 % from baseline.

[5] = cited from earlier work
Isolated pathogens = assay: MIC of pathogens isolated from the patients; assay type: cell-based; details: calculated for one patient only
Source text: Table 1 Baseline characteristics of the study population.

[6] = only determinations within ±4 d of the date suggested by the model, plasma
[7] = plasma trough determinations from fourth dose onward, 33 OAI patients, TDM-guided dosing, total concentration

Compound: CN[C@H]1C(=O)N[C@@H]2Cc3ccc(cc3)Oc3cc4cc(c3O[C@@H]3O[C@H](C(=O)O)[C@@H](O)[C@H](O)[C@H]3NC(=O)CCCCCCCCC(C)C)Oc3ccc(cc3Cl)[C@@H](O)[C@@H]3NC(=O)[C@H](NC(=O)[C@@H]4NC(=O)[C@@H](NC2=O)c2cc(cc(O)c2Cl)Oc2cc1ccc2O)c1ccc(O)c(c1)-c1c(O[C@H]2O[C@H](CO)[C@@H](O)[C@H](O)[C@@H]2O)cc(O)cc1[C@@H](C(=O)NCCCN(C)C)NC3=O [dalbavancin]
- Cmin ≥4 mg L^−1, n (%), Cmin performed at correct timing (n=95) [1, 6]: 93 (97.9) n (%)
- Cmin ≥8 mg L^−1, n (%), Cmin performed at correct timing (n=95) [1, 6]: 81 (85.3) n (%)
- Cmin ≥4 mg L^−1, n (%), Total Cmin (n=118) [1, 7]: 114 (96.6) n (%)
- Cmin ≥8 mg L^−1, n (%), Total Cmin (n=118) [1, 7]: 93 (78.8) n (%)
- Cmin [2]: > 8000 ng/mL
- Completed therapy with clinical success, n (%) ([3]; patients n=33): 11 (33.3) n (%)
- Failure, n (%) ([3]; patients n=33): 1 (3) n (%)
- Ongoing, n (%) ([3]; patients n=33, still on treatment with controlled infection at end of study): 18 (54.5) n (%)
- Relapse, n (%) ([3]; patients n=33, within 6 months after end of treatment): 3 (9.1) n (%)
- AEs, n (%) [4]: 0 n (%)
- Adverse effects on renal function or platelet count [4]: did not observe any adverse effects on renal function or platelet count
- penetration proportion into bone tissue ([5]; ref Dunne et al., 2015): 13.1%
- half-life ([5]; ref Rappo et al., 2019a): 14.4 days
- total binding protein ([5]; ref Rappo et al., 2019a): 93%
- MIC for dalbavancin (Isolated pathogens): < 0.06 µg/mL
